Results reported in US20200170990A1, “METHOD FOR TREATING SCHNITZLER'S SYNDROME” (OLATEC THERAPEUTICS LLC, priority 2017, published 2020).

What was measured:
[1] = test system: caspase-1 (p10) in J774A.1 cells; assay: Western blot for caspase-1 (p45 and p10) in J774A.1 cells after LPS/ATP stimulation; format: cell-based, mouse
Method: (§1) J774A.1 murine macrophages cells were stimulated with 1 μg/ml lipopolysaccharide (LPS) for 4 hours and either nigericin (NIG, 10 μM) or ATP (5 mM) was added for 1 hour. Dapansutrile OLT1177® was added to the cells either 30 minutes following LPS stimulation or at the same time as ATP.
A subunit of activated caspase-1 (p10) was reduced in J774A.1 cells in the presence of dapansutrile.

[2] = test system: caspase-1 activity in J774A.1 cells; assay: Caspase-1 activity in J774A.1 cell lysates after LPS and nigericin stimulation; format: cell-based, mouse; details: 50 μM, LPS/NIG set at 100%, n=3, p<0.05
Method: as §1
Caspase-1 activity is expressed as percent change of the mean value of each assay (n=3) with LPS/NIG set at 100%. Caspase-1 (Cas-1) activity was reduced by 35% (p<0.05) in an enzymatic assay of cell lysate from stimulated cells in the presence of dapansutrile, comparing with control.

[3] = test system: zymosan-induced knee joint swelling in mice; assay: Zymosan-induced knee arthritis in mice: macroscopic joint swelling; format: in vivo; details: 600 mg/kg oral gavage, zymosan 180 μg intra-articular, 24 hours, vs vehicle-treated mice
Method: Zymosan injected directly into the knee joint of mice elicits an inflammatory response and is used as a model of arthritis (Verschure et al, Ann. Rheum Dis. 53:455-460, 1994). Endpoints measured in this model include knee joint swelling score, cytokine levels in the synovial tissue and microscopic pathology of the knee.
(§2) Arthritis was induced in mice by intra-articular injection of zymosan (180 μg) into the knee joint (at time zero) of both knees in each mouse. Mice were treated by oral gavage with vehicle (water, n=5) or dapansutrile in vehicle (600 mg/kg, n=4) at times −25 hr, −13 hr, and −1 hr. After zymosan injection at time zero, mice were further treated with vehicle or dapansutrile (600 mg/kg) at times +11 hr and +23 hr. Mice were sacrificed 24 hours following the Zymosan intraarticulr idministration.
Macroscopic joint swelling was assessed on all knees after the skin is removed using a scoring system ranging from 0 to 3, with 0 being no swelling and 3 being severe swelling.

[4] = test system: IL-1β release from human monocytes-derived macrophages; assay: Suppression of IL-1β release from human monocytes-derived macrophages (LPS priming, nigericin release, ELISA); format: cell-based
Method: Peripheral blood mononuclear cells (PBMCs) were isolated from blood of 11 healthy human donors and differenciates in macrophages using GM-CSF (5 ng/ml) for 5 days. They were stimulated with 1 μg/mL with lipopolysaccharide (LPS, priming phase) at time zero. At 30 minutes, they were incubated with different concentrations of dapansutrile (OLT1177®) from 0.001-50 μM. At 4 hours, 10 μM of nigericin (NIG, release phase) was added. At the end of an 5 hour incubation period, the supernatant was harvested and assayed for IL-1β using respective ELISA kits following manafacturer's protocols.

[5] = test system: mouse IL-1β in synovial membrane; assay: Zymosan-induced knee arthritis in mice: IL-1β in synovial membrane (ELISA); format: in vivo; details: 600 mg/kg oral gavage, 24 hours, vs untreated mice
Method: as §2
In addition, synovial membrane was taken from one knee per mouse and the cells were lysed for measurement of mouse IL-1β, using an ELISA kit from R&D Systems, Inc., following manufacturer's protocols. The results are shown as mean±standard error of mean and statistical evaluation is performed.

[6] = in vivo; cited from earlier work

| Compound | Subunit of activated caspase-1 (p10), Western blot [1] | Reduction of caspase-1 activity [2] [%] | Macroscopic joint swelling (score 0 to 3) [3] | Release of IL-1β from stimulated monocytes-derived macrophages ([4]; LPS priming, nigericin release, compared to control) | Concentration at which maximum suppression effect on IL-1β release was observed ([4]; human monocytes-derived macrophages, LPS 1 μg/mL + nigericin 10 μM, tested 0.001-50 μM) [µM] | Level of IL-1β in synovial membrane [5] | Half-life [6] [days] |
| --- | --- | --- | --- | --- | --- | --- | --- |
| CS(=O)(=O)CCC#N [dapansutrile, 3-methanesulfonylpropionitrile] | reduced | 35 | significant reduction in the joint swelling | suppresses the release of IL-1β | 1 | significantly reduced |  |
| Canakinumab: fully human selective monoclonal anti-IL-1β antibody |  |  |  |  |  |  | 28 |
